“And” between values parts separate entries of the source, which are not always exact repeats. Equal values may be shown once. Read-outs that look alike come from different tables or passages of the source.
What was measured:
BALB/c mice [1] = assay type: in vivo
From the text: (§1) The rodent retina is widely used to investigate retinal diseases, as well as the response of central nervous system neurons to injury. Light-induced retinal damage (phototoxicity) selectively brings about photoreceptor cell death. Thus, this model is useful for studying the potential mechanisms underlying photoreceptor death and the subsequent retinal degeneration processes since it mimics the photoreceptor degeneration that forms the main characteristic of age-related macular degeneration.
(§2) Aliquots were removed from the refrigerator and allowed to warm to room temperature for at least 30 minutes before dosing. The positive control, BDNF, was reconstituted with 0.9% Sodium Chloride for Injection, USP at a concentration of 1 μg/μL. Any residual volumes were discarded.
(§3) Thirty-four (34) male BALB/c mice were received from Charles River, St Constant.
The dose volume for each eye/dose was 10 μL. The formulations were stirred continuously during dose administration and were retained on wet ice between doses.
(§4) The positive control, BDNF, was administered to Group 4 animals by single bilateral intravitreal (IVT) injection on Day 1. The dose volume was 1 μL/eye. Animals were anesthetized for the dosing procedure using an isoflurane/oxygen mix and/or a sedative cocktail (ketamine 100 mg/kg; xylazine 10 mg/kg; half or quarter dose if needed given by intraperitoneal injection). Injections were made using a glass microneedle connected to a Hamilton syringe via a sclera pilot hole created with a 30 G needle. A bland lubricating ointment was applied to the eyes following dosing.
On Day 2, animals were transferred to the blue light bins (housed individually). Light fixtures with bulbs emitting blue light (460 to 490 nm; Philips F40/BB Special Blue F40T12/BB) were attached to separate housing racks directly above the cages, such that all animals received similar light exposure. […] Hiding devices/tubes and bedding were not available in the bins.
The anesthetic used was ketamine (100 mg/kg) and xylazine (10 mg/kg).
All animals were euthanized on Day 8 and underwent exsanguination from the abdominal aorta after carbon dioxide asphyxiation.
One eye from each animal was embedded in paraffin, sectioned, mounted on glass slides, and stained with hematoxylin and eosin.
The outer nuclear layer (ONL) thickness (number of cell layers) were counted at 4 locations in the retina and a microscopic evaluation of the retina, including pigmented retinal epithelial cells, was conducted.

[2] = molecular target: T1, human adenosine A3 receptor (Homo sapiens, UniProt P0DMS8); experiment: Inhibition of forskolin-stimulated adenylyl cyclase via A3 receptor, CHO cell membranes; assay type: biochemical; conditions: membranes of CHO cells stably transfected with human A3
T1 sequence (P0DMS8 1-318): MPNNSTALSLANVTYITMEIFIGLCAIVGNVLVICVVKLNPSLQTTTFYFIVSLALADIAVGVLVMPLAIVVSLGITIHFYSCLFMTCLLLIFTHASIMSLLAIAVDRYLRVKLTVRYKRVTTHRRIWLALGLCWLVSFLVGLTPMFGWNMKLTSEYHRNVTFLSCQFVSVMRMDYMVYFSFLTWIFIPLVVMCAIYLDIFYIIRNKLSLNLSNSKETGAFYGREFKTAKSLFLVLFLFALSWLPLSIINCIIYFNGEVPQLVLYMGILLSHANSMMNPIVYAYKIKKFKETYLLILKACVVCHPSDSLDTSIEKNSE
Experimental: The A1 and A3 receptor-mediated inhibition of forskolin-stimulated adenylyl cyclase activity was tested in membranes prepared from CHO cells stably transfected with the human A1 and A3 adenosine receptors.

BALB/c mice [3] = assay type: in vivo; conditions: for Group mean of the number of cell layers in retinal outer nuclear layer: placebo 7.22
From the text: as §1, §2, §3
The test item and placebo were administered by twice-daily topical ocular instillation from Days 1 to 7, separated by at least 8 hours. The dose volume for each eye/dose was 10 μL. The formulations were stirred continuously during dose administration and were retained on wet ice between doses.
as §4
On Day 2, animals were transferred to the blue light bins (housed individually). Light fixtures with bulbs emitting blue light (460 to 490 nm; Philips F40/BB Special Blue F40T12/BB) were attached to separate housing racks directly above the cages, such that all animals received similar light exposure. The light intensity in the bins was measured using a light meter; the average intensity was 550 lux. Hiding devices/tubes and bedding were not available in the bins.
Mortality/moribundity checks were performed twice daily, once in the morning and once in the afternoon, throughout the study. Detailed examinations were performed weekly. Individual body weights were measured twice pre-treatment and at necropsy.
Electroretinography (ERG) was performed once pre-treatment and once at the end of Week 1 following overnight dark adaptation. The anesthetic used was ketamine (100 mg/kg) and xylazine (10 mg/kg).
All animals were euthanized on Day 8 and underwent exsanguination from the abdominal aorta after carbon dioxide asphyxiation. No necropsy examinations were performed.
One eye from each animal was embedded in paraffin, sectioned, mounted on glass slides, and stained with hematoxylin and eosin. The other eye was retained.
Histopathological evaluation was performed by a board-certified veterinary pathologist or veterinary pathologist with training and experience in laboratory animal pathology. The outer nuclear layer (ONL) thickness (number of cell layers) were counted at 4 locations in the retina and a microscopic evaluation of the retina, including pigmented retinal epithelial cells, was conducted. Representative images were captured for consultation and illustrative purposes.

A2A adenosine receptor = A2A adenosine receptor (Homo sapiens, UniProt P29274); experiment: Adenosine receptor binding, A1 > A2A selectivity; conditions: ratio of Ki values
Chain of A2A adenosine receptor (P29274 whole entry): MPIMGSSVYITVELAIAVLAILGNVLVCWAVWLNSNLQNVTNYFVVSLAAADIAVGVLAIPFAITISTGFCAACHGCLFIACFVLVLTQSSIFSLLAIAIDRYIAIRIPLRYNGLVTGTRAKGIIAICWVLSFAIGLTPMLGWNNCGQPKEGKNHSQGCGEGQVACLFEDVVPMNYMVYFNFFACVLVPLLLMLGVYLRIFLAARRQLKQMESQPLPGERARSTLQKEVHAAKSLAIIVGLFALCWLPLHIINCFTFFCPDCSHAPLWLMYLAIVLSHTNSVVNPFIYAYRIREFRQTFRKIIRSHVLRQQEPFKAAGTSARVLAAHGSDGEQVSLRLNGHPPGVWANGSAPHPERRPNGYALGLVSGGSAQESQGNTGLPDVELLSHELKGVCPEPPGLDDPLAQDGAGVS
Experimental: The cell suspension is then homogenized in ice-cold hypotonic buffer (5 mM Tris/HCl mM EDTA, pH 7.4) and the homogenate is spun for 10 minutes (4° C.) at 1,000 g.

O=[N+]([O-])OC[C@H]1O[C@@H](n2cnc3c(NC4CCCC4)ncnc32)[C@H](O)[C@@H]1O [Compound A, ((2R,3S,4R,5R)-5-(6-(cyclopentylamino)-9H-purin-9-yl)-3,4-dihydroxytetrahydrofuran-2-yl)methyl nitrate]
Average number of cell layers in the ONL, placebo compared to treated group (BALB/c mice [1]; 600 or 900 μg/eye/day topical): reduced in the placebo group | B-wave amplitude following 0 dB scotopic flash stimuli (BALB/c mice [1]; 600 or 900 μg/eye/day, versus placebo control, comparable to BDNF positive control): higher | Number of nuclear bodies in the ONL based on average ONL thickness counts (BALB/c mice [1]; low dose group (600 μg/eye/day), compared with all groups): retained the greatest number of nuclear bodies in the ONL | Overall ERG function and ONL cellularity after blue light exposure (BALB/c mice [1]; two or three-times daily at 600 or 900 μg/eye/day topical, 1100 lux for 6 hours on Day 2): preservation of ERG function and cellularity in the ONL layer of the retina | EC50 [2]: > 100000 nM | Incidence of minimal to moderate decrease in cellularity of the retina (BALB/c mice [3]; 300 μg/eye/day topical, placebo 6/8): 7/8 | Group mean of the number of cell layers in retinal outer nuclear layer (BALB/c mice [3]; 300 μg/eye/day topical): 7.28 layers | Incidence of minimally decreased retinal cellularity (BALB/c mice [3]; 600 μg/eye/day topical, other animals not affected at all): 2/8 | Group mean of the number of cell layers in retinal outer nuclear layer (BALB/c mice [3]; 600 μg/eye/day topical): 8.56 layers | Overall effect on incidence and severity of decreased retinal cellularity (BALB/c mice [3]; 600 μg/eye/day, 7 days twice daily topical ocular instillation): protective effect | Retinal outer nuclear layer thickness (Mean number of nuclei), individual animals (BALB/c mice [3]; Group 2, low dose 300 μg/eye/day, animals 2001-2008, mean of 4 measurements per retina): 10.00 and 9.25 and 6.50 and 5.25 and 7.25 and 6.25 and 5.50 and 8.25 | Retinal outer nuclear layer thickness (Mean number of nuclei), individual animals (BALB/c mice [3]; Group 3, high dose 600 μg/eye/day, animals 3001-3008, mean of 4 measurements per retina): 9.25 and 9.00 and 9.75 and 7.75 (2×) and 9.50 and 8.75 and 6.75 | Abnormalities in general appearance or condition of the animals (BALB/c mice [3]; male BALB/c mice, dosing period, 300 or 600 μg/eye/day topical twice daily Days 1 to 7): No abnormalities were observed | ERG parameters (scotopic single flash 0 dB, A-wave and B-wave) (BALB/c mice [3]; one week after blue light exposure, 300 or 600 μg/eye/day, versus other groups including placebo): comparable across treatment groups

O=[N+]([O-])OC[C@H]1O[C@@H](n2cnc3c(NC4CCOC4)ncnc32)[C@H](O)[C@@H]1O (stereo partly drawn) [Compound D, ((2R,3S,4R,5R)-3,4-dihydroxy-5-(6-(tetrahydrofuran-3-ylamino)-9H-purin-9-yl)tetrahydrofuran-2-yl)methyl nitrate]
A1 > A2A SELECTIVITY [KiA2(nm)/KiA1(nm)] (A2A adenosine receptor): >9434

B1: BDNF: Brain Derived Neurotrophic Factor, positive control given by single bilateral intravitreal injection (protein, UniProt P23560 19-247, looked up)
Neurotrophic factor BDNF …: APMKEANIRGQGGLAYPGVRTHGTLESVNGPKAGSRGLTSLADTFEHVIEELLDEDQKVRPNEENNKDADLYTSRVMLSSQVPLEPPLLFLLEEYKNYLDAANMSMRVRRHSDPARRGELSVCDSISEWVTAADKKTAVDMSGGTVTVLEKVPVSKGQLKQYFYETKCNPMGYTKEGCRGIDKRHWNSQCRTTQSYVRALTMDSKKRIGWRFIRIDTSCVCTLTIKRGR
Average number of cell layers in the ONL, placebo compared to treated group (BALB/c mice [1]; BDNF control, 1 μg/eye IVT): reduced in the placebo group | Group mean of the number of cell layers in retinal outer nuclear layer (BALB/c mice [3]; 1 μg/eye single IVT injection Day 1): 8.75 layers | Retinal outer nuclear layer thickness (Mean number of nuclei), individual animals (BALB/c mice [3]; Group 4, 1 μg/eye/day IVT, animals 4001-4008, mean of 4 measurements per retina): 7.75 (2×) and 9.25 and 8.50 (2×) and 8.75 and 10.50 and 9.00

Reference: patent publication US20160158267A1, “METHODS OF PREVENTING, REDUCING OR TREATING MACULAR DEGENERATION” (Inotek Pharmaceuticals Corporation, priority 2014, published 2016)
